# Measurements: patent US9012420B2, “Aptamer for chymase, and use thereof” (Ribomic Inc., priority 2009, dated 2015)
# Oligonucleotides are written 5' to 3', each unit as a sugar letter and its base; * is a phosphorothioate linkage, no mark a phosphodiester; rarer units and linkages stand in square brackets, end groups in braces. Plain capitals give the bases only. r = 2'-OH (RNA); f = 2'-fluoro
# T1: chymase (recombinant, manufactured by SIGMA) (Homo sapiens, UniProt P23946)
# T1 construct: purchased SIGMA; host or cells: yeast
# T1 sequence (P23946 22-247): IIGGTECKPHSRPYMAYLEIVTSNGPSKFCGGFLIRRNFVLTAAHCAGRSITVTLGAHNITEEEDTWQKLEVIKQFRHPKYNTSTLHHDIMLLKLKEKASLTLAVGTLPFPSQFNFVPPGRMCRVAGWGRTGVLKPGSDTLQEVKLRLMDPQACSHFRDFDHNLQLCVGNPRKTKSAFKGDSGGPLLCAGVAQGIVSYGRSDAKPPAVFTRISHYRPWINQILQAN
# T2: chymase (Homo sapiens, UniProt P23946)
# T2 sequence (P23946 22-247): T1 sequence (P23946 22-247)
# B1: 32 (nucleic acid)
# chain: rGrGrGrAfCrGrGfUrArGrGrArAfUfUfCrGfUfCfCfUfCrAfUrGfUfCfUrAfUfUfUfUrGfCrArGrAfUrArGrAfCfUfUrArArArGfCrArArAfCrAfUrArGrArArGrArGfCrGrGfCfCrGfC
# B2: 33 (nucleic acid)
# chain: rGrGrGrAfCrGrGfUrArGrGrArAfUfUfCfCfUrGfUfCfUfUfUfUfCfCfCrAfCrGfCrArAfCrArArAfUfUrAfCrArGrArGfCfUfUfUrGfCrArArArAfCrAfUrArGrArArGrArGfCrGrGfCfCrGfC
# modifications: aptamer
# B3: 34 (nucleic acid)
# chain: rGrGrGrAfCrGrGfUrArGrGrArAfUfUfCfUrGfCfCrGfCrArAfCfCfCrArAfUrGrArArArAfCrGrArArGrAfUrArGrArGrAfUrArArAfUfCrGrArAfCrAfUrArGrArArGrArGfCrGrGfCfCrGfC
# modifications: aptamer
# B4: 5 (nucleic acid)
# chain: rGrGrGrAfCrGrGfUrArGrGrArAfUfUfCfCfCrAfCfUfUrGfUfCfUfUfUrGrArGrGfCrArArGrArArAfUfUrGfUrAfUfUfCfCrGrArArGrArArGfCrAfUrArGrArArGrArGfCrGrGfCfCrGfC
# modifications: aptamer
# B5: 6 (nucleic acid)
# chain: rGrGrGrAfCrGrGfUrArGrGrArAfUfUfCfUrAfCrGrGfUfCfUrGfUrGfUrGrArArAfUfUrGrArArAfCrAfCrAfCrArArArGrArAfCrArAfUrArGrAfCrAfUrArGrArArGrArGfCrGrGfCfCrGfC
# modifications: aptamer
# B6: 7 (nucleic acid)
# chain: rGrGrGrAfCrGrGfUrArGrGrArAfUfUfCrAfCfCfUfUfUfCfCrArAfUfUrGfUrGrArArArGrArArAfCrAfCrArArArArArGrArArAfUrGrAfCrAfUfCrAfUrArGrArArGrArGfCrGrGfCfCrGfC
# modifications: aptamer
# What was measured:
# [1] = molecular target: T1, chymase (recombinant, manufactured by SIGMA); assay: Chymase inhibitory activity using synthetic substrate Suc-Ala-Ala-Pro-Phe-MCA; assay type: biochemical
# Experimental: A first method employs a synthetic substrate. A useful chymase substrate is Suc-Ala-Ala-Pro-Phe-MCA (4-methylcoumaryl-7-amide group) (manufactured by Peptide Institute, Inc.), which contains the 4-amino acid peptide “Ala-Ala-Pro-Phe”, a standard substrate for chymotrypsin-like proteases.
# The assay is performed using a 96-well plate (F16 Black Maxisorp Fluoronunc, manufactured by Nunc), with a reaction mixture volume of 100 μL, in a buffer solution (solution C; see Example 2 below). First, each nucleic acid is prepared in solution C to obtain 50 μL solutions. After 10 μL of the 1 mM substrate prepared in solution C is added, the plate is set to the microplate reader SpectraMax190 (manufactured by Molecular Devices Corporation), and incubated at 37° C. for 5 minutes. Separately, 0.05 μg of chymase (recombinant, manufactured by SIGMA) is diluted in solution C, and 40 μL of this dilution is incubated at 37° C. for 5 minutes. The chymase solution is added to the mixture of the nucleic acid and substrate to initiate an enzyme reaction. The plate containing the reaction mixture is set to the microplate reader SpectraMax190 (manufactured by Molecular Devices Corporation), and examined for time-dependent changes in the fluorescence intensity at 37° C. for 5 minutes (excitation wavelength 380 nm, detection wavelength 460 nm). A linear approximation of the increase in the fluorescence of the AMC (7-amino-4-methylcoumarine) released from the substrate by chymase activity is generated, and its slope is taken as the initial reaction velocity. For control, samples are treated and analyzed in the same manner in two cases: use of a nucleic acid pool containing a random sequence of 30 or 40 nucleotides (negative control), and use of chymostatin, a known chymotrypsin-like serine protease inhibitor (positive control). Taking the initial reaction velocity without the nucleic acid and inhibitor as a 100% enzyme activity, the inhibitory rate for each test substance is calculated, and the inhibitor concentration required to cause a 50% inhibition of the enzyme activity (IC50) is determined.
# Whether the nucleic acids shown by SEQ ID NO: 4-20, 22-34, and 38-48 inhibit the enzyme activity of chymase was determined as described below. The chymase substrate used was Suc-Ala-Ala-Pro-Phe-MCA (manufactured by Peptide Institute, Inc.), which contains the 4-amino-acid peptide Ala-Ala-Pro-Phe, a standard substrate for chymotrypsin-like proteases. Here, Suc is a protecting succinyl group, and MCA is a 4-methylcoumaryl-7-amide group; upon cleavage of the C-terminal side of phenylalanine, AMC (7-amino-4-methylcoumarine) is released. By detecting the fluorescence of this AMC, the enzyme activity of chymase can be determined. The assay was performed using a 96-well plate (F16 Black Maxisorp Fluoronunc, manufactured by Nunc), with a reaction mixture volume of 100 μL, in solution C as a buffer solution. First, each nucleic acid was serially diluted to 0.0027-2 μM concentrations in solution C to obtain 50 μL solutions. After 10 μL of the 1 mM substrate prepared in solution C was added thereto, the plate was set to the microplate reader SpectraMax190 (manufactured by Molecular Devices Corporation), and incubated at 37° C. for 5 minutes. Separately, 0.05 μg (or 0.005 μg) of chymase (recombinant, manufactured by SIGMA) was diluted in solution C to obtain a 40 μL chymase solution, and incubated at 37° C. for 5 minutes. The chymase solution was added to the mixture of the nucleic acid and substrate to initiate an enzyme reaction. The final chymase concentration in the reaction mixture was 16.7 nM (or 1.67 nM), the final substrate concentration being 100 μM. The plate containing the reaction mixture was set to the microplate reader SpectraMax190 (manufactured by Molecular Devices Corporation), and examined for time-dependent changes in the fluorescence intensity at 37° C. for 5 minutes (or 30 minutes) (excitation wavelength 380 nm, detection wavelength 460 nm). […]
# [2] = molecular target: T1, chymase (recombinant, manufactured by SIGMA); assay: Surface plasmon resonance (Biacore T100), chymase immobilized on CM5 chip, nucleic acid injected as analyte; assay type: binding; set-up: key to Binding activity as determined using Biacore: ++: a sequence that binds to chymase significantly more strongly than the negative control 40N; +: a sequence that binds to chymase equivalently compared with the negative control 40N; key to binding activity using Biacore: ++: significant binding to chymase than SEQ ID NO: 58 which is a negative control; +: similar binding level as SEQ ID NO: 58 which is a negative control; settings: for Binding activity as determined using Biacore: Table 4, about 4000 RU chymase immobilized, nucleic acid 0.3 μM, solution C, compared with 40N; for binding activity using Biacore: Table 5, same manner as Example 4, compared with SEQ ID NO: 58
# Experimental: In another method, chymase is first immobilized onto a sensor chip, the amount immobilized being about 4000 RU. 20 μL of an aptamer solution for analyte, prepared at 0.01 μg/μL, is injected, and the binding of the aptamer to chymase is detected. An RNA containing a random nucleotide sequence of 30 or 40 nucleotides is used as a negative control.
# Whether these nucleic acids bind to chymase was determined by the surface plasmon resonance method. Measurements were taken using Biacore T100 (manufactured by GE Healthcare) as described below. About 4000 RU of chymase (recombinant, manufactured by SIGMA) was immobilized on the sensor chip surface of a CM5 chip, using an amine coupling kit. 20 μL of each nucleic acid, prepared at 0.3 μM, as an analyte was injected at a flow rate of 20 μL/min. Solution C was used as a running buffer. The method of evaluation used was the same as Example 1.
# All nucleic acids of SEQ ID NO: 58-68 were prepared by chemical synthesis. Whether these nucleic acids are bound to chymase was assessed by surface plasmon resonance method in the same manner as in Example 4. The inhibitory activity on chymase was measured in the same manner as in Example 3.
# All nucleic acids of SEQ ID NOs: 73-79, 56(8), 80, 56(10), 81, 56(13)-56(14), 83-87 were prepared by chemical synthesis. Whether these nucleic acids are bound to chymase was assessed by surface plasmon resonance method in the same manner as in Example 4.
# All nucleic acids of SEQ ID NO: 88-120, 121, 69, 122, 123, 70-72, 124-131 were prepared by chemical synthesis. Whether these nucleic acids are bound to chymase was assessed by surface plasmon resonance method in the same manner as in Example 4.
# [3] = molecular target: T2, chymase; assay: Surface plasmon resonance (Biacore T100), aptamer immobilized on SA chip, chymase injected as analyte; assay type: binding; set-up: key: ++: a sequence that binds to chymase significantly more strongly than the negative control 40N; +: a sequence that binds to chymase equivalently compared with the negative control 40N; settings: Table 1; about 1000 RU nucleic acid immobilized, chymase 0.2 μM analyte, running buffer solution A; compared with 40N
# Experimental: Binding strength is measured using Biacore T100 (manufactured by GE Healthcare). In a method of measurement, the aptamer is first immobilized onto a sensor chip, the amount immobilized being about 1000 RU. 20 μL of a chymase solution for analyte, prepared at 0.2 μM, is injected, and the binding of chymase to the aptamer is detected. An RNA comprising a random nucleotide sequence of 30 or 40 nucleotides is used as a negative control.
# The binding activities against chymase of the nucleic acids shown by SEQ ID NO: 4-20 and 22-34 were determined by the surface plasmon resonance method using Biacore T100 (manufactured by GE Healthcare). The sensor chip used was the SA chip, which had streptavidin immobilized thereon. Bound thereto was about 1500 RU of a 16-nucleotide Poly dT with biotin bound to the 5′ end thereof. […] 20 μL of chymase for analyte, prepared at 0.2 μM, was injected. Solution A was used as a running buffer.
# The binding activities against chymase of the nucleic acids shown by SEQ ID NO: 38-48 were evaluated by the surface plasmon resonance method. In the evaluations for SEQ ID NO: 38-48, measurements were taken in the same manner as Example 1. Solution C was used as a running buffer.
# [4] = Table 4, same manner as Example 3, mean value for 2 to 3 measurements
# [5] = Table 5, same manner as Example 3, mean value of two measurements
# [6] = Table 3, substrate 100 μM, solution C, 37° C., mean value for 2 to 3 measurements
Molecule,"IC50 [1, 4]",Binding activity as determined using Biacore [2],Binding activity as determined using Biacore [3],"IC50 [1, 6]",other results
"49 (GGUUCUACAGAUAGAGAUAAAGUAGAACC; 2'-fluoro at CU, RNA at AG, backbone not given here) [compound 49]",117 ± 66 nM,++,,,
"50 (GGCAUUCUACAGAUAGAGAUAAAGUAGAAUUUAAC; 2'-fluoro at CU, RNA at AG, backbone not given here) [compound 50]",138 ± 93 nM,++,,,
"51 (CGUUACAUAAUGUAUAUACCAGGGUAACUAAACAUAGAAGAGCGG; 2'-fluoro at CU, RNA at AG, backbone not given here) [compound 51]",24 ± 9 nM,++,,,
"52 (CCGUAUAUACCAGGGUAACUAAACGG; 2'-fluoro at CU, RNA at AG, backbone not given here) [compound 52]",> 1000 nM,+,,,
"57 (GCAUUUGAGAUAGAUUUAAACAAACGC; 2'-fluoro at CU, RNA at AG, backbone not given here) [compound 57]",99 ± 13 nM,++,,,
"59 (GGGUUAGAUAGAGAUAAAAACCC; 2'-fluoro at CU, RNA at AG, backbone not given here) [compound 59]",,,,,"IC50 [1, 5]: 38 ± 9 nM; binding activity using Biacore [2]: ++"
"60 (GGGUUAGAUAGAGCUAAAAACCC; 2'-fluoro at CU, RNA at AG, backbone not given here) [compound 60]",,,,,"IC50 [1, 5]: 26 ± 6 nM; binding activity using Biacore [2]: ++"
"61 (GGGUUAGAUAGAUUUAAAAACCC; 2'-fluoro at CU, RNA at AG, backbone not given here) [compound 61]",,,,,"IC50 [1, 5]: 23 ± 6 nM; binding activity using Biacore [2]: ++"
"62 (GGGUUGGAUAGAGUUAAGAACCC; 2'-fluoro at CU, RNA at AG, backbone not given here) [compound 62]",,,,,"IC50 [1, 5]: 29 ± 4 nM; binding activity using Biacore [2]: ++"
B1,,,+,235 ± 55 nM,
B2,,,+,145 ± 88 nM,
B3,,,+,137 ± 9 nM,
B4,,,++,80 ± 39 nM,
B5,,,++,456 ± 261 nM,
B6,,,++,> 500 nM,
